Measurements taken from patent US10807944B2, “HDAC inhibitor compounds and methods of treatment” (priority 2014, dated 2020).
pIC50: −log10 of the molar value. Like-named read-outs stand apart in the source and are kept apart here.

Legend:
HDAC1 [1] = biological target: T1, HDAC1 (Homo sapiens (Human), UniProt Q13547); assay: In vitro HDAC1 inhibition of HTS hits (HDAC I/II-Glo reagents); format: biochemical; conditions: HTS follow-up
HDAC1 [2] = biological target: T1, HDAC1; assay: HDAC1 in vitro inhibition, dose response; format: biochemical; conditions: Table 2; read-out: HDAC 1 IC50
HDAC3 [3] = biological target: T2, HDAC3 (Homo sapiens (Human), UniProt O15379); assay: HDAC3 in vitro inhibition, dose response; format: biochemical; conditions: Table 2; read-out: HDAC 3 IC50
T2 sequence (O15379 whole entry): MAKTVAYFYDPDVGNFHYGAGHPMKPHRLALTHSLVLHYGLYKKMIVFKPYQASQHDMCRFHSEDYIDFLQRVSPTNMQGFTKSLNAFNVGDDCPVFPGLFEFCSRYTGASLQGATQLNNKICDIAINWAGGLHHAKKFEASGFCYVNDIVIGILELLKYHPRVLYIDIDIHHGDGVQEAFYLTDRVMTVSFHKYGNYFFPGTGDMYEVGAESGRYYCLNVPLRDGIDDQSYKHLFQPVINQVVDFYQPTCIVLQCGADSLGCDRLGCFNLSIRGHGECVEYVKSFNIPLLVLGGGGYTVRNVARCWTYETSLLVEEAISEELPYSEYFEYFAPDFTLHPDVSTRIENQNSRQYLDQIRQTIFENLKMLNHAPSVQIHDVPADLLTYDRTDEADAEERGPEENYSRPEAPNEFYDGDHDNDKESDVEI
T2 sequence (Q9Y618 395-489 partner): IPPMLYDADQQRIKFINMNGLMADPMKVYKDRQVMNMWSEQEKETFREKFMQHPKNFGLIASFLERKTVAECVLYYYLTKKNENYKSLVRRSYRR

HDAC6 = HDAC6 (Homo sapiens (Human), UniProt Q9UBN7); assay: HDAC6 in vitro inhibition, dose response; format: biochemical; conditions: Table 2; read-out: HDAC 6 IC50
HDAC6, sequence (Q9UBN7 whole entry): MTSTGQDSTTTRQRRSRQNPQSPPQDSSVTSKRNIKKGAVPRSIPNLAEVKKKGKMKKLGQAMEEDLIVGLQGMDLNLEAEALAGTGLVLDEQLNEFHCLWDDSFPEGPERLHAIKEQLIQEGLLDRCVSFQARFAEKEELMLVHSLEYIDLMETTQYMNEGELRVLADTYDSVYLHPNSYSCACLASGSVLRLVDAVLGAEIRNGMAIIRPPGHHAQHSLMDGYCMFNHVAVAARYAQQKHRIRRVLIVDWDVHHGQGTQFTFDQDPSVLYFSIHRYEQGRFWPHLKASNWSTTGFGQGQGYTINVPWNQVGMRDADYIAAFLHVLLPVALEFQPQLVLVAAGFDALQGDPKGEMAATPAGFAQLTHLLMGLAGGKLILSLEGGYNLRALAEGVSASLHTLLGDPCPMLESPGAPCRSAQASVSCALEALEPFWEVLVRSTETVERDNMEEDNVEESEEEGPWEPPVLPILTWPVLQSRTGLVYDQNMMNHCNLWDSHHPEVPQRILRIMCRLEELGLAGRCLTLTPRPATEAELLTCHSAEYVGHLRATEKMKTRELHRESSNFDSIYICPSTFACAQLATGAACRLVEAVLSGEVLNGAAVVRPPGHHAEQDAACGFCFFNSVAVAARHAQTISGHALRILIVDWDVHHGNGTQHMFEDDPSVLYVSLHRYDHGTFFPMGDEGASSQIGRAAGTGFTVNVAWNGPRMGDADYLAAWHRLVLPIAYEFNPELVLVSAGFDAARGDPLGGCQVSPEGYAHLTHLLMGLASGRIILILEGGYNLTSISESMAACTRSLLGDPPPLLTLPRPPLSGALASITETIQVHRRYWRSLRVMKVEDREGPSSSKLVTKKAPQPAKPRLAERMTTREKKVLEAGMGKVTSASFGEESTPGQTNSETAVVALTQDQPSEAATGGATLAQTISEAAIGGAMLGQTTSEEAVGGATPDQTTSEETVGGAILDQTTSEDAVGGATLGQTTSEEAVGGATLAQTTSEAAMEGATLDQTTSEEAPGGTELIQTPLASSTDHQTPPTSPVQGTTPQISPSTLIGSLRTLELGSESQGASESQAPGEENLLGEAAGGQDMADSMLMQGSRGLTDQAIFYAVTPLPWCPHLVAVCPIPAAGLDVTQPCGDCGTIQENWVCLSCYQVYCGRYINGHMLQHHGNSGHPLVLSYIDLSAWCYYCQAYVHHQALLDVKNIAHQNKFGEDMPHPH

HDAC2 [4] = biological target: T3, HDAC2 (Homo sapiens (Human), UniProt Q92769); assay: HDAC2 in vitro inhibition, dose response; format: biochemical; conditions: Table 2; read-out: HDAC 2 IC50
T3 sequence (Q92769 whole entry): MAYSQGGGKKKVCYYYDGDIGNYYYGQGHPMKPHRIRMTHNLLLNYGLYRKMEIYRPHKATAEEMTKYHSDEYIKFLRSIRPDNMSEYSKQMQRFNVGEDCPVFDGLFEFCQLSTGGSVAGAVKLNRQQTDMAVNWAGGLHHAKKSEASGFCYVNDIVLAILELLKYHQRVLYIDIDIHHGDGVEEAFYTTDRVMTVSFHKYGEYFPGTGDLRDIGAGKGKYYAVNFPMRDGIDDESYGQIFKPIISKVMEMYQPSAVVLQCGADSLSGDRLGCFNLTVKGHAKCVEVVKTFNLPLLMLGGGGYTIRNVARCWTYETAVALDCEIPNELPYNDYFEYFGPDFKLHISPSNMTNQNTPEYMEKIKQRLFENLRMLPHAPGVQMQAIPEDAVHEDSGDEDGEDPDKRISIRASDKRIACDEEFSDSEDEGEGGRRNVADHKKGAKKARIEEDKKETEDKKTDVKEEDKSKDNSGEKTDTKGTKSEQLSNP

HDAC8 [5] = biological target: T4, HDAC8 (Homo sapiens (Human), UniProt Q9BY41); assay: HDAC8 in vitro inhibition, dose response; format: biochemical; conditions: Table 2; read-out: HDAC 8 IC50
T4 sequence (Q9BY41 whole entry): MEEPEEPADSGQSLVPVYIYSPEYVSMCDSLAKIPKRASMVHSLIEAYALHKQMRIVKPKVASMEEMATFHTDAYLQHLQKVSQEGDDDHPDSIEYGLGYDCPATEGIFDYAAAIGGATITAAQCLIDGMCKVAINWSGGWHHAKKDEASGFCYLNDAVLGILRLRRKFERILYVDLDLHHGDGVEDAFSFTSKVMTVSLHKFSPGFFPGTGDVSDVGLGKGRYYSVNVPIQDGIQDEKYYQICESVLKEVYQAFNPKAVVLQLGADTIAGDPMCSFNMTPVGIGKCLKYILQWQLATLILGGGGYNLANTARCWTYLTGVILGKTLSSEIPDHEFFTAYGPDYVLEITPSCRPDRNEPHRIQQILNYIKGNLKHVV

HDAC1 [6] = biological target: T1, HDAC1; assay: HDAC-1 inhibition potency, luminescence readout; format: biochemical; conditions: Table 6, luminescence readout
Excerpt: (§1) Compounds were examined for their HDAC inhibitory activity and their effect on cancer cell viability (MDA-MB-231 cells).

HDAC2 [7] = biological target: T3, HDAC2; assay: HDAC-2 inhibition potency, luminescence readout; format: biochemical; conditions: Table 6, luminescence readout
Excerpt: as §1

HDAC3 [8] = biological target: T2, HDAC3; assay: HDAC-3 inhibition potency, luminescence readout; format: biochemical; conditions: Table 6, luminescence readout
MDA-MB-231 cells = assay: Cancer cell viability (CellTiter-Glo); format: cell-based; conditions: for pIC50: Homo sapiens, MDA-MB-231, read-out: Cancer cell (MDA-MB-231) killing IC50
HepG2 cells [9] = system: HepG2 cells
HCT116 cells [10] = assay: Histone acetylation by Western blotting; format: cell-based; conditions: for accumulation of acetylated histones: HCT116, 1 h exposure, TSA 0.2 μM, others 2 μM (FIG. 1A)
HCT116 and A549 cells = assay: Acetylation of non-histone proteins by Western blotting; format: cell-based; conditions: HCT116 and A549, 1 h; TSA 0.2 μM, UF010 2 μM
HepG2 cells [11] = assay: cells; conditions: Homo sapiens
HCT116 cells [12] = assay: H3K18ac after 6 h pulse treatment and drug washout; format: cell-based; conditions: for time at which histone acetylation (H3K18ac) was induced: HCT116, 6 h pulse exposure; for time up to which induced acetylation was maintained: HCT116, 6 h pulse then drug washout, time after drug addition
[13] = system: Ad-MLP-Luc reporter in HCT116 cell line; assay: Ad-MLP-Luc luciferase reporter activation; format: cell-based; conditions: HCT116, dose-dependent
HDAC1 [14] = biological target: T1, HDAC1; conditions: Table 1, literature data; read-out: Inhibitory Potency (IC50) HDAC 1; cited from earlier work
HDAC4 = HDAC4 (Homo sapiens (Human), UniProt P56524); conditions: Table 1, literature data; read-out: Inhibitory Potency (IC50) HDAC 4; cited from earlier work
HDAC4, sequence (P56524 whole entry): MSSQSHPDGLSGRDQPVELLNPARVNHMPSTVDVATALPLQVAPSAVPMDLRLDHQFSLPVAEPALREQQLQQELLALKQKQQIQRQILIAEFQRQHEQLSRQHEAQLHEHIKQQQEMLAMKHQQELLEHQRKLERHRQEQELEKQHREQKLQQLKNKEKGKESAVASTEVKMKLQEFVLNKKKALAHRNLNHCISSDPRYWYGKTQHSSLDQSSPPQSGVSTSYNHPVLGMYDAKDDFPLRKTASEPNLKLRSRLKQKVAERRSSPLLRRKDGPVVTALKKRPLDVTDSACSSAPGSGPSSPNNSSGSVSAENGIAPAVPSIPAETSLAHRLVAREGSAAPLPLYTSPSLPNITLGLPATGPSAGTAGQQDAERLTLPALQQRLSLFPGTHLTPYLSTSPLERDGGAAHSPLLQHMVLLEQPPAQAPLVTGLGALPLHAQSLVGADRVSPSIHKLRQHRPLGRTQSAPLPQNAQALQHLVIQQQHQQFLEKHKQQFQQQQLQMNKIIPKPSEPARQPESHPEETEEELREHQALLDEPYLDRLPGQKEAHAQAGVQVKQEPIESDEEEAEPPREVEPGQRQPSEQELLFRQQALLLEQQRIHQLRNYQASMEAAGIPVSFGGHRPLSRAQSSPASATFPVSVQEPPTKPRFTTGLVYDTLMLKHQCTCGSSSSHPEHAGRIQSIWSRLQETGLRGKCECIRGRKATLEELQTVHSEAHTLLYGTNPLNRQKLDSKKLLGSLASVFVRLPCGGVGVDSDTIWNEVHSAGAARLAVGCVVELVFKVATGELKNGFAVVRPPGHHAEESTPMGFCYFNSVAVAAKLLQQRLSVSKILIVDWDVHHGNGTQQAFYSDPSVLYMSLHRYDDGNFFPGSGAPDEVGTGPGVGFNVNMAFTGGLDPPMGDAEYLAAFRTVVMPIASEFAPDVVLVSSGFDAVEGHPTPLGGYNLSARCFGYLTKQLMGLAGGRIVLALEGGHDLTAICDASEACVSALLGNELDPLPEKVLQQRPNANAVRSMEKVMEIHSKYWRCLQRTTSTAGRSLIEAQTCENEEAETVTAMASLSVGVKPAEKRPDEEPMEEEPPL

[15] = 4b, 50 mg/kg dosed orally, ref (4); cited from earlier work
HDAC8 [16] = biological target: T4, HDAC8; conditions: Table 1, literature data; read-out: Inhibitory Potency (IC50) HDAC 8; cited from earlier work
HDAC10 = HDAC10 (Homo sapiens (Human), UniProt Q969S8); conditions: Table 1, literature data; read-out: Inhibitory Potency (IC50) HDAC 10; cited from earlier work
HDAC10, sequence (Q969S8 whole entry): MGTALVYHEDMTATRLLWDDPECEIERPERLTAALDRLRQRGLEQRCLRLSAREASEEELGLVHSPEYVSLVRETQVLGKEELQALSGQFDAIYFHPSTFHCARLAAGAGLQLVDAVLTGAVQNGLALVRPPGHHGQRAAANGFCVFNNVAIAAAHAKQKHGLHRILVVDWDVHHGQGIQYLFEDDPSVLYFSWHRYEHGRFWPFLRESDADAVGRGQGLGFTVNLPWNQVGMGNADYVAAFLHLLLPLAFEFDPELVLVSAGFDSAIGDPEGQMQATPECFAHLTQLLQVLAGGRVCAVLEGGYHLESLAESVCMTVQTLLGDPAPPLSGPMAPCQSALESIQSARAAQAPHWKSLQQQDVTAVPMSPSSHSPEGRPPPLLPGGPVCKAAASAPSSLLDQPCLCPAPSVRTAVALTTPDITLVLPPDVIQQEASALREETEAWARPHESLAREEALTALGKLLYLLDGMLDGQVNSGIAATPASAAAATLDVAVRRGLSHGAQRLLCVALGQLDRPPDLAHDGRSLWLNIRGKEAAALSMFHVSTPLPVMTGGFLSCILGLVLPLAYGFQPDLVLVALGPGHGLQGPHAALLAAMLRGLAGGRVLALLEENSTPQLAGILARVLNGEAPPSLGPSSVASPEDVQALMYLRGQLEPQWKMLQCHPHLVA

HDAC5 = HDAC5 (Homo sapiens (Human), UniProt Q9UQL6); conditions: Table 1, literature data; read-out: Inhibitory Potency (IC50) HDAC 5; cited from earlier work
HDAC7 = HDAC7 (Homo sapiens (Human), UniProt Q8WUI4); conditions: Table 1, literature data; read-out: Inhibitory Potency (IC50) HDAC 7; cited from earlier work
HDAC9 = HDAC9 (Homo sapiens (Human), UniProt Q9UKV0); conditions: Table 1, literature data; read-out: Inhibitory Potency (IC50) HDAC 9; cited from earlier work
in vivo = conditions: rat
[17] = rat, ref (6); cited from earlier work

T1 sequence (Q13547 whole entry): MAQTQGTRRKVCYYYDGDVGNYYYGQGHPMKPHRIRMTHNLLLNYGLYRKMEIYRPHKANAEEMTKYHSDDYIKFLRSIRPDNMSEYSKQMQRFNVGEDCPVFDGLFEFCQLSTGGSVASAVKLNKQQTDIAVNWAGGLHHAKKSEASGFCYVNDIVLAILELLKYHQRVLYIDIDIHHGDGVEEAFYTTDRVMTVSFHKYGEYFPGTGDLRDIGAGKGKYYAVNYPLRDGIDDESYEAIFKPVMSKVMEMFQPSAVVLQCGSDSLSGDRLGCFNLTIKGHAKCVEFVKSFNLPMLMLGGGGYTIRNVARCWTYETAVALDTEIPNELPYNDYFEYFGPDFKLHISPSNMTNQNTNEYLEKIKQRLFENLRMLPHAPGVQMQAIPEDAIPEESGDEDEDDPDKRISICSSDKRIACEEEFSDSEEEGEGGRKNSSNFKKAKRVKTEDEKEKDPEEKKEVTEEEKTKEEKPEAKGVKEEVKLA

pIC50 (HDAC1 [2])	pIC50 (HDAC3 [3])	pIC50 (HDAC2 [4])	Compound	other results
			O=C(CCCCCCC(=O)Nc1ccccc1)NO [SAHA, vorinostat, reference compound]	potency of HDAC1 inhibition in vitro (HDAC1 [1]): < 10 µM
5.89	6.38		CCCCNNC(=O)c1ccc(-c2cc(C(=O)OCC)ccc2F)cc1 [SR-4373, ethyl 4′-(2-butylhydrazinecarbonyl)-6-fluorobiphenyl-3-carboxylate]	pIC50 (HDAC6): 5.19
6.72	7.15	5.98	CCCCNNC(=O)c1ccc(C(C)(C)C)cc1 [RLS2-211, 4-tert-butyl-N′-butylbenzohydrazide]	pIC50 (HDAC8 [5]): 7.35; pIC50 (HDAC6): 7.35
			CCCCNNC(=O)c1ccccc1-c1ccccc1 [SR-3459]	HDAC inhibition potency (IC50) HDAC1 (HDAC1 [6]): No inhibition; HDAC inhibition potency (IC50) HDAC2 (HDAC2 [7]): No inhibition; HDAC inhibition potency (IC50) HDAC3 (HDAC3 [8]): No inhibition; pIC50 (MDA-MB-231 cells): < 4.00; effect on cancer cell viability (MDA-MB-231 cells; MDA-MB-231): does not impair cancer cell viability
			CCCCNNC(=O)c1ccc(-c2ccccc2)cc1 [SR-3558]	pIC50 (HDAC1 [6]): 7.05; pIC50 (HDAC2 [7]): 6.10; pIC50 (MDA-MB-231 cells): 4.91
< 4.30	< 4.30	< 4.30	CCCCNNC(=O)c1ccccc1 [RLS2-125, N′-butylbenzohydrazide]	growth inhibition for HepG2 (HepG2 cells [9]; HepG2, 96 h): little to no growth inhibition
			CC(/C=C/C(=O)NO)=C\[C@@H](C)C(=O)c1ccc(N(C)C)cc1 [TSA, Trichostatin A, reference compound]	accumulation of acetylated histones (HCT116 cells [10]): strongly induced acetylation at some sites but weakly at other sites; α-tubulin acetylation (HCT116 and A549 cells): dramatically increased
5.72	6.37	5.60	CCCCNNC(=O)c1ccc(OC)cc1 [RLS2-126, N′-butyl-4-methoxybenzohydrazide]	
< 4.30	< 4.30	< 4.30	CCCCNNC(=O)c1cccc(OCC)c1 [RLS2-303, N′-butyl-3-ethoxybenzohydrazide]	
4.84	5.36	4.25	CCCCNNC(=O)c1cccnc1 [RLS2-289, N′-butylnicotinohydrazide]	
			C/C=C1\NC(=O)[C@H]2CSSCC/C=C/[C@H](CC(=O)N[C@H](C(C)C)C(=O)N2)OC(=O)[C@H](C(C)C)NC1=O [Romidepsin, romidepsin]	time at which histone acetylation (H3K18ac) was induced (HCT116 cells [12]): quickly induced acetylation; time up to which induced acetylation was maintained (HCT116 cells [12]): up to 24 h; Ad-MLP-Luc reporter activity [13]: dramatically increased; pIC50 (HDAC1 [14]): 8.70; pIC50 (HDAC4): 7.52
			Nc1ccccc1NC(=O)CCCCCC(=O)Nc1ccccc1 [Compound 4b]	AUC [15]: 1.08 µM·h; Cmax [15]: 1130 nM; T1/2 [15]: 2.76 h; Tmax [15]: 0.25 h
5.05	5.87	5.04	CCCCNNC(=O)c1ccc(OC(F)(F)F)cc1 [RLS2-124, N′-butyl-4-(trifluoromethoxy)benzohydrazide]	
4.50	< 4.30	4.33	CCCCNNC(=O)c1cccc(I)c1 [RLS3-5, N′-butyl-3-iodobenzohydrazide]	
			CC(=O)Nc1ccc(C(=O)Nc2cc(-c3cccs3)ccc2N)cc1 [Cpd60]	pIC50 (HDAC8 [16]): < 4.52; pIC50 (HDAC10): 5.47; pIC50 (HDAC4): < 4.52; pIC50 (HDAC5): < 4.52; pIC50 (HDAC7): < 4.52; pIC50 (HDAC9): < 4.52
< 4.30	< 4.30	< 4.30	Cc1ccc(C(=O)NNC(C)(C)C)cc1 [RLS2-187, N′-tert-butyl-4-methylbenzohydrazide]	
5.77	6.66	5.41	CCCNNC(=O)c1ccc(Br)cc1 [RLS2-137, 4-bromo-N′-propylbenzohydrazide]	
6.49	6.82	6.28	CCCCNNC(=O)c1ccc(CN=[N+]=[N-])cc1 [RLS2-312, 4-(azidomethyl)-N′-butylbenzohydrazide]	pIC50 (HDAC6): 8.05
4.45	5.73	4.03	CCCCNNC(=O)c1cccc(C(F)(F)F)c1 [RLS3-6, N′-butyl-3-(trifluoromethyl)benzohydrazide]	
6.12	6.42	5.92	CCCCNNC(=O)c1ccc(-c2cc(C)cc(F)c2)cc1 [SR-4372, N′-butyl-3′-fluoro-5′-methylbiphenyl-4-carbohydrazide]	pIC50 (HDAC8 [5]): 5.44; pIC50 (HDAC6): 5.43
5.75	5.78	5.49	CN(C)c1ccc(C(=O)NNCC2CCCC2)cc1 [RLS2-225, N′-(cyclopentylmethyl)-4-(dimethylamino)benzohydrazide]	
< 4.30	< 4.30	< 4.30	CC(C)NNC(=O)c1ccccc1 [RLS2-185, N′-isopropylbenzohydrazide]	
< 4.30	< 4.30	< 4.30	CCCCNNC(=O)c1cc2ccccc2cc1O [RLS2-210, N′-butyl-3-hydroxy-2-naphthohydrazide]	
			Nc1ccccc1NC(=O)c1ccc(CNC(=O)OCc2cccnc2)cc1 [MS-275, entinostat]	accumulation of acetylated histones (HCT116 cells [10]): only slightly induced acetylation at several sites but failed to induce acetylation at most sites; time at which histone acetylation (H3K18ac) was induced (HCT116 cells [12]): 18 h; time up to which induced acetylation was maintained (HCT116 cells [12]): at least 48 h; MTD (in vivo): ~1.5 mg/kg; MTD [17]: 3.1 mg/kg

Compound	pIC50 (HDAC1 [2])	pIC50 (HDAC3 [3])	pIC50 (HDAC2 [4])	other results
CCCCNNC(=O)c1ccc(-c2ccccc2)cc1 [RLS3-43, N′-butylbiphenyl-4-carbohydrazide]	7.05		6.10	pIC50 (HDAC8 [5]): 5.61
CCCCNNC(=O)c1ccc(-c2cccc(F)c2F)cc1 [SR-4370, N′-butyl-2′,3′-difluorobiphenyl-4-carbohydrazide]	6.89	8.22	6.24	pIC50 (HDAC8 [5]): 5.64; pIC50 (HDAC6): 5.43; pIC50 (HDAC1 [6]): 6.89; pIC50 (HDAC2 [7]): 6.24; pIC50 (HDAC3 [8]): 8.22; pIC50 (MDA-MB-231 cells): 4.90
CCCCNNC(=O)c1ccc(N(C)C)cc1 [RLS2-131, N′-butyl-4-(dimethylamino)benzohydrazide]	6.64	6.92	6.06	pIC50 (HDAC8 [5]): 4.88; pIC50 (HDAC6): < 4.30; inhibition of cellular HDACs (H4K5ac, H3K18ac) (HCT116 cells [10]; HCT116, 0.5 μM, 24 h (FIG. 1B)): potent inhibition of cellular HDACs; potency against HepG2 relative to UF010 (HepG2 cells [9]; HepG2): 3 fold; pIC50 (HepG2 cells [11]; HepG2, read-out: IC50 Control): 5.82; pIC50 (HepG2 cells [11]; HepG2, read-out: IC50 HDAC1 shRNA): 5.74; pIC50 (HepG2 cells [11]; HepG2, read-out: IC50 HDAC2 shRNA): 5.70; pIC50 (HepG2 cells [11]; HepG2, read-out: IC50 HDAC3 shRNA): 6.70
N′-butyl-3-fluorobenzohydrazide [RLS2-306]	5.06	5.32	4.96	
